ChEMBL document CHEMBL1909294, “Translating clinical findings into knowledge in drug safety evaluation--drug induced liver injury prediction system (DILIps)” (PLoS Comput Biol, 2011)

Experiments:
Hepatotoxicity [1] = system: Hepatotoxicity;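 on HepSE Combined Scores: combined hepatic side effect score as listed in the training data of the Drug Induced Liver Injury Prediction System (DILIps)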;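 on HepSE cholecystitis: Cholecystitis-related hepatic side effect score drawn from the DILIps (drug-induced liver injury prediction) training data set; call rule not given here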;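 on HepSE cirrhosis: cirrhosis hepatic side effect score taken from the DILIps (drug-induced liver injury prediction) training set; call rule not given here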; on HepSE hepatic failure: call rule not given here;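 on HepSE hepatic necrosis: score of hepatic side effects for hepatic necrosis, drawn from the training data of DILIps, a prediction system for drug-induced liver injury; call rule not given here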;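 on HepSE hepatomegaly: hepatic side effect score for hepatomegaly, taken from the training set of the DILIps drug-induced liver injury prediction system; call rule not given here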;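 on HepSE liver function tests abnormal: hepatic side effect score taken from the DILIps (drug-induced liver injury prediction system) training data, here covering abnormal liver function test findings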
Hepatotoxicity [2] = system: Hepatotoxicity; remark: listed apart in the source;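 on HepSE Combined Scores: combined hepatic side effect score as listed in the training data of the Drug Induced Liver Injury Prediction System (DILIps)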;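 on HepSE cholecystitis: Cholecystitis-related hepatic side effect score drawn from the DILIps (drug-induced liver injury prediction) training data set; call rule not given here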;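 on HepSE cirrhosis: cirrhosis hepatic side effect score taken from the DILIps (drug-induced liver injury prediction) training set; call rule not given here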; on HepSE hepatic failure: call rule not given here;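 on HepSE hepatic necrosis: score of hepatic side effects for hepatic necrosis, drawn from the training data of DILIps, a prediction system for drug-induced liver injury; call rule not given here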;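 on HepSE liver function tests abnormal: hepatic side effect score taken from the DILIps (drug-induced liver injury prediction system) training data, here covering abnormal liver function test findings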
Hepatotoxicity [3] = system: Hepatotoxicity; remark: listed apart in the source;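 on HepSE Combined Scores: combined hepatic side effect score as listed in the training data of the Drug Induced Liver Injury Prediction System (DILIps)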;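 on HepSE cholecystitis: Cholecystitis-related hepatic side effect score drawn from the DILIps (drug-induced liver injury prediction) training data set; call rule not given here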;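 on HepSE cirrhosis: cirrhosis hepatic side effect score taken from the DILIps (drug-induced liver injury prediction) training set; call rule not given here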; on HepSE hepatic failure: call rule not given here;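 on HepSE hepatic necrosis: score of hepatic side effects for hepatic necrosis, drawn from the training data of DILIps, a prediction system for drug-induced liver injury; call rule not given here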;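 on HepSE liver function tests abnormal: hepatic side effect score taken from the DILIps (drug-induced liver injury prediction system) training data, here covering abnormal liver function test findings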
Hepatotoxicity [4] = system: Hepatotoxicity; remark: listed apart in the source;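 on HepSE Combined Scores: combined hepatic side effect score as listed in the training data of the Drug Induced Liver Injury Prediction System (DILIps)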;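 on HepSE cholecystitis: Cholecystitis-related hepatic side effect score drawn from the DILIps (drug-induced liver injury prediction) training data set; call rule not given here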;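 on HepSE cirrhosis: cirrhosis hepatic side effect score taken from the DILIps (drug-induced liver injury prediction) training set; call rule not given here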; on HepSE hepatic failure: call rule not given here;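 on HepSE hepatic necrosis: score of hepatic side effects for hepatic necrosis, drawn from the training data of DILIps, a prediction system for drug-induced liver injury; call rule not given here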;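 on HepSE liver function tests abnormal: hepatic side effect score taken from the DILIps (drug-induced liver injury prediction system) training data, here covering abnormal liver function test findings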
Hepatotoxicity [5] = system: Hepatotoxicity; remark: listed apart in the source; on HepSE hepatic failure: call rule not given here
Hepatotoxicity [6] = system: Hepatotoxicity; remark: listed apart in the source; on HepSE hepatic failure: call rule not given here
Hepatotoxicity [7] = system: Hepatotoxicity; remark: listed apart in the source
Hepatotoxicity [8] = system: Hepatotoxicity; remark: listed apart in the source
Hepatotoxicity [9] = system: Hepatotoxicity; remark: listed apart in the source
Hepatotoxicity [10] = system: Hepatotoxicity; remark: listed apart in the source
Hepatotoxicity [11] = system: Hepatotoxicity; remark: listed apart in the source
Hepatotoxicity [12] = system: Hepatotoxicity; remark: listed apart in the source
Hepatotoxicity [13] = system: Hepatotoxicity; remark: listed apart in the source
Hepatotoxicity [14] = system: Hepatotoxicity; remark: listed apart in the source

Compound	HepSE_hepatic failure (Hepatotoxicity [1])	HepSE_liver function tests abnormal (Hepatotoxicity [2])	HepSE_hepatic necrosis (Hepatotoxicity [3])	HepSE_hepatitis (Hepatotoxicity [4])	HepSE_Combined Scores (Hepatotoxicity [5])	HepSE_cirrhosis (Hepatotoxicity [6])	HepSE_cholecystitis (Hepatotoxicity [7])	HepSE_hepatomegaly (Hepatotoxicity [8])	HepSE_jaundice (Hepatotoxicity [9])	HepSE_liver fatty (Hepatotoxicity [10])	HepSE_liver disease (Hepatotoxicity [11])	HepSE_bilirubinemia (Hepatotoxicity [12])	HepSE_elevated liver function tests (Hepatotoxicity [13])	HepSE_cholelithiasis (Hepatotoxicity [14])	other results
CC[C@H]1OC(=O)[C@H](C)C(=O)[C@H](C)[C@@H](O[C@@H]2O[C@H](C)C[C@H](N(C)C)[C@H]2O)[C@](C)(OC)C[C@@H](C)C(=O)[C@H](C)[C@H]2N(CCCCn3cnc(-c4cccnc4)c3)C(=O)O[C@]12C [TELITHROMYCIN]	–	–	–	–	–	–	–	–	–	–	–	–	–	–	HepSE_hepatic failure (Hepatotoxicity [1]; Liver): 1; HepSE_liver function tests abnormal (Hepatotoxicity [2]; Liver): 1; HepSE_hepatic necrosis (Hepatotoxicity [3]; Liver): 1; HepSE_hepatitis (Hepatotoxicity [4]; Liver): 1; HepSE_Combined Scores (Hepatotoxicity [5]; Liver): 5; HepSE_cirrhosis (Hepatotoxicity [6]; Liver): 0; HepSE_cholecystitis (Hepatotoxicity [7]; Liver): 0; HepSE_hepatomegaly (Hepatotoxicity [8]; Liver): 0; HepSE_jaundice (Hepatotoxicity [9]; Liver): 1; HepSE_liver fatty (Hepatotoxicity [10]; Liver): 0; HepSE_liver disease (Hepatotoxicity [11]; Liver): 0; HepSE_bilirubinemia (Hepatotoxicity [12]; Liver): 0; HepSE_elevated liver function tests (Hepatotoxicity [13]; Liver): 0; HepSE_cholelithiasis (Hepatotoxicity [14]; Liver): 0
Cn1nnc2c(C(N)=O)ncn2c1=O [TEMOZOLOMIDE]	0	0	0	0	0	0	0	0	0	0	0	0	0	0	–
COc1cc([C@@H]2c3cc4c(cc3[C@@H](O[C@@H]3O[C@@H]5CO[C@@H](c6cccs6)O[C@H]5[C@H](O)[C@H]3O)[C@H]3COC(=O)[C@H]23)OCO4)cc(OC)c1O [TENIPOSIDE]	0	0	0	0	0	0	0	0	0	0	0	0	0	0	–
C[C@H](Cn1cnc2c(N)ncnc21)OCP(=O)(O)O [TENOFOVIR ANHYDROUS]	0	0	0	1	2	0	0	0	0	1	0	0	0	0	–
COc1cc2nc(N3CCN(C(=O)C4CCCO4)CC3)nc(N)c2cc1OC (stereo unspecified) [TERAZOSIN]	0	0	0	0	1	0	0	0	1	0	0	0	0	0	–
CN(C/C=C/C#CC(C)(C)C)Cc1cccc2ccccc12 [TERBINAFINE]	1	0	0	0	3	0	0	0	1	0	1	0	0	0	–
CC(C)(C)NCC(O)c1cc(O)cc(O)c1 (stereo unspecified) [TERBUTALINE]	0	0	0	0	0	0	0	0	0	0	0	0	0	0	–
CC(C)N1CCN(c2ccc(OCC3COC(Cn4cncn4)(c4ccc(Cl)cc4Cl)O3)cc2)CC1 (stereo unspecified) [TERCONAZOLE]	0	0	0	0	0	0	0	0	0	0	0	0	0	0	–
C[C@]12CC[C@H]3[C@@H](CCC4=CC(=O)CC[C@@]43C)[C@@H]1CC[C@@H]2O [TESTOSTERONE]	0	1	0	0	2	0	0	0	1	0	0	0	0	0	–
